Test results taken from ChEMBL document CHEMBL3862012, “Methylene versus carbonyl bridge in the structure of new tubulin polymerization inhibitors with tricyclic A-rings” (Bioorg Med Chem, 2016).

Legend:
[1] = Cytotoxicity against human MDA-MB-435 cells assessed as growth inhibition at 10 uM after 48 hrs by SRB assay relative to control; format: functional; settings: MDA-MB-435, 48 h, read-out: GI
[2] = Cytotoxicity against human SNB19 cells assessed as growth inhibition at 10 uM after 48 hrs by SRB assay relative to control; format: functional; settings: SNB-19, 48 h, read-out: GI
[3] = Cytotoxicity against human HOP92 cells assessed as growth inhibition at 10 uM after 48 hrs by SRB assay relative to control; format: functional; settings: HOP-92, 48 h, read-out: GI
Ovis aries = species: Ovis aries; experiment: Inhibition of sheep brain tubulin polymerization at 100 uM by DAPI staining-based fluorimetric method relative to control
[4] = Cytotoxicity against human NCI-H226 cells assessed as growth inhibition at 10 uM after 48 hrs by SRB assay relative to control; format: functional; settings: NCI-H226, 48 h, read-out: GI
[5] = Cytotoxicity against human SF295 cells assessed as growth inhibition at 10 uM after 48 hrs by SRB assay relative to control; format: functional; settings: SF-295, 48 h, read-out: GI
[6] = Cytotoxicity against human SR cells assessed as growth inhibition at 10 uM after 48 hrs by SRB assay relative to control; format: functional; settings: read-out: GI
[7] = Cytotoxicity against human MDA-MB-231 cells assessed as growth inhibition at 10 uM after 48 hrs by SRB assay relative to control; format: functional; settings: MDA-MB-231, 48 h, read-out: GI
[8] = Cytotoxicity against human HCT116 cells assessed as growth inhibition at 10 uM after 48 hrs by SRB assay relative to control; format: functional; settings: HCT-116, 48 h, read-out: GI
[9] = Cytotoxicity against human SF539 cells assessed as growth inhibition at 10 uM after 48 hrs by SRB assay relative to control; format: functional; settings: SF-539, 48 h, read-out: GI
[10] = Cytotoxicity against human 786-0 cells assessed as growth inhibition at 10 uM after 48 hrs by SRB assay relative to control; format: functional; settings: 786-0, 48 h, read-out: GI
[11] = Cytotoxicity against human NCI-H522 cells assessed as growth inhibition at 10 uM after 48 hrs by SRB assay relative to control; format: functional; settings: NCI-H522, 48 h, read-out: GI
[12] = Cytotoxicity against human SKOV3 cells assessed as growth inhibition at 10 uM after 48 hrs by SRB assay relative to control; format: functional; settings: SK-OV-3, 48 h, read-out: GI
[13] = Cytotoxicity against human HOP62 cells assessed as growth inhibition at 10 uM after 48 hrs by SRB assay relative to control; format: functional; settings: HOP-62, 48 h, read-out: GI
[14] = Cytotoxicity against human U251 cells assessed as growth inhibition at 10 uM after 48 hrs by SRB assay relative to control; format: functional; settings: U-251, 48 h, read-out: GI
[15] = Cytotoxicity against human A549 cells assessed as growth inhibition at 10 uM after 48 hrs by SRB assay relative to control; format: functional; settings: A549, 48 h, read-out: GI
[16] = Cytotoxicity against human M14 cells assessed as growth inhibition at 10 uM after 48 hrs by SRB assay relative to control; format: functional; settings: M14, 48 h, read-out: GI
[17] = Cytotoxicity against human UACC257 cells assessed as growth inhibition at 10 uM after 48 hrs by SRB assay relative to control; format: functional; settings: UACC-257, 48 h, read-out: GI
[18] = Cytotoxicity against human SF268 cells assessed as growth inhibition at 10 uM after 48 hrs by SRB assay relative to control; format: functional; settings: SF-268, 48 h, read-out: GI
[19] = Cytotoxicity against human DU145 cells assessed as growth inhibition at 10 uM after 48 hrs by SRB assay relative to control; format: functional; settings: DU-145, 48 h, read-out: GI
[20] = Cytotoxicity against human T47D cells assessed as growth inhibition at 10 uM after 48 hrs by SRB assay relative to control; format: functional; settings: read-out: GI
[21] = Cytotoxicity against human HCT15 cells assessed as growth inhibition at 10 uM after 48 hrs by SRB assay relative to control; format: functional; settings: HCT-15, 48 h, read-out: GI
[22] = Cytotoxicity against human BT549 cells assessed as growth inhibition at 10 uM after 48 hrs by SRB assay relative to control; format: functional; settings: BT-549, 48 h, read-out: GI
[23] = Cytotoxicity against human SK-MEL-2 cells assessed as growth inhibition at 10 uM after 48 hrs by SRB assay relative to control; format: functional; settings: SK-MEL-2, 48 h, read-out: GI
[24] = Cytotoxicity against human A498 cells assessed as growth inhibition at 10 uM after 48 hrs by SRB assay relative to control; format: functional; settings: A498, 48 h, read-out: GI
[25] = Cytotoxicity against human OVCAR4 cells assessed as growth inhibition at 10 uM after 48 hrs by SRB assay relative to control; format: functional; settings: OVCAR-4, 48 h, read-out: GI
[26] = Cytotoxicity against human COLO205 cells assessed as growth inhibition at 10 uM after 48 hrs by SRB assay relative to control; format: functional; settings: COLO 205, 48 h, read-out: GI
[27] = Cytotoxicity against human ACHN cells assessed as growth inhibition at 10 uM after 48 hrs by SRB assay relative to control; format: functional; settings: read-out: GI
[28] = Cytotoxicity against human RPMI8226 cells assessed as growth inhibition at 10 uM after 48 hrs by SRB assay relative to control; format: functional; settings: RPMI-8226, 48 h, read-out: GI
[29] = Cytotoxicity against human KM12 cells assessed as growth inhibition at 10 uM after 48 hrs by SRB assay relative to control; format: functional; settings: KM12, 48 h, read-out: GI
[30] = Cytotoxicity against human NCI-ADR-RES cells assessed as growth inhibition at 10 uM after 48 hrs by SRB assay relative to control; format: functional; settings: read-out: GI
[31] = Cytotoxicity against human HL-60(TB) cells assessed as growth inhibition at 10 uM after 48 hrs by SRB assay relative to control; format: functional; settings: HL-60, 48 h, read-out: GI
[32] = Cytotoxicity against human Caki1 cells assessed as growth inhibition at 10 uM after 48 hrs by SRB assay relative to control; format: functional; settings: CAKI-1, 48 h, read-out: GI
[33] = Cytotoxicity against human Hs 578T cells assessed as growth inhibition at 10 uM after 48 hrs by SRB assay relative to control; format: functional; settings: read-out: GI
[34] = Cytotoxicity against human TK10 cells assessed as growth inhibition at 10 uM after 48 hrs by SRB assay relative to control; format: functional; settings: TK-10, 48 h, read-out: GI
[35] = Cytotoxicity against human MDA-MB-468 cells assessed as growth inhibition at 10 uM after 48 hrs by SRB assay relative to control; format: functional; settings: MDA-MB-468, 48 h, read-out: GI
[36] = Cytotoxicity against human SNB75 cells assessed as growth inhibition at 10 uM after 48 hrs by SRB assay relative to control; format: functional; settings: SNB-75, 48 h, read-out: GI

Compound	inhibition of growth at 10 µM [1] [%]	inhibition of growth at 10 µM [2] [%]	inhibition of growth at 10 µM [3] [%]	inhibition (Ovis aries) [%]	inhibition of growth at 10 µM [4] [%]	inhibition of growth at 10 µM [5] [%]	inhibition of growth at 10 µM [6] [%]	inhibition of growth at 10 µM [7] [%]	inhibition of growth at 10 µM [8] [%]	inhibition of growth at 10 µM [9] [%]	inhibition of growth at 10 µM [10] [%]	inhibition of growth at 10 µM [11] [%]	inhibition of growth at 10 µM [12] [%]	inhibition of growth at 10 µM [13] [%]	inhibition of growth at 10 µM [14] [%]	inhibition of growth at 10 µM [15] [%]	inhibition of growth at 10 µM [16] [%]	inhibition of growth at 10 µM [17] [%]	inhibition of growth at 10 µM [18] [%]	inhibition of growth at 10 µM [19] [%]	also measured
COc1ccc(CN2c3ccccc3Sc3ccccc32)cc1F	100	65	50	63	44	88	83	76	91	100	78	95	83	80	79	78	100	45	61	86	inhibition of growth at 10 µM [20]: 50%; inhibition of growth at 10 µM [21]: 84%; inhibition of growth at 10 µM [22]: 50%; inhibition of growth at 10 µM [23]: 60%; inhibition of growth at 10 µM [24]: 100%; inhibition of growth at 10 µM [25]: 51%; inhibition of growth at 10 µM [26]: 100%; inhibition of growth at 10 µM [27]: 58%; inhibition of growth at 10 µM [28]: 79%; inhibition of growth at 10 µM [29]: 84%; inhibition of growth at 10 µM [30]: 97%; inhibition of growth at 10 µM [31]: 100%; inhibition of growth at 10 µM [32]: 46%; inhibition of growth at 10 µM [33]: 83%; inhibition of growth at 10 µM [34]: 53%; inhibition of growth at 10 µM [35]: 100%; inhibition of growth at 10 µM [36]: 55%
COc1ccc(CN2c3ccccc3Sc3ccccc32)c(F)c1	100	59	67	7	44	92	88	40	84	100	58	100	70	73	70	66	89	48	48	79	inhibition of growth at 10 µM [20]: 88%; inhibition of growth at 10 µM [21]: 65%; inhibition of growth at 10 µM [22]: 47%; inhibition of growth at 10 µM [23]: 70%; inhibition of growth at 10 µM [24]: 100%; inhibition of growth at 10 µM [25]: 38%; inhibition of growth at 10 µM [26]: 88%; inhibition of growth at 10 µM [27]: 57%; inhibition of growth at 10 µM [28]: 88%; inhibition of growth at 10 µM [29]: 74%; inhibition of growth at 10 µM [30]: 78%; inhibition of growth at 10 µM [31]: 100%; inhibition of growth at 10 µM [32]: 78%; inhibition of growth at 10 µM [33]: 78%; inhibition of growth at 10 µM [34]: 49%; inhibition of growth at 10 µM [35]: 98%; inhibition of growth at 10 µM [36]: 100%
COc1ccc(CN2c3ccccc3Sc3ccccc32)c(C(F)(F)F)c1	100	67	61	15	42	98	88	59	92	100	58	100	82	59	79	67	92	46	44	79	inhibition of growth at 10 µM [20]: 74%; inhibition of growth at 10 µM [21]: 63%; inhibition of growth at 10 µM [22]: 47%; inhibition of growth at 10 µM [23]: 96%; inhibition of growth at 10 µM [24]: 96%; inhibition of growth at 10 µM [25]: 56%; inhibition of growth at 10 µM [26]: 100%; inhibition of growth at 10 µM [27]: 51%; inhibition of growth at 10 µM [28]: 71%; inhibition of growth at 10 µM [29]: 80%; inhibition of growth at 10 µM [30]: 77%; inhibition of growth at 10 µM [31]: 76%; inhibition of growth at 10 µM [32]: 67%; inhibition of growth at 10 µM [33]: 77%; inhibition of growth at 10 µM [34]: 34%; inhibition of growth at 10 µM [35]: 81%; inhibition of growth at 10 µM [36]: 92%
